Measured values: ChEMBL document CHEMBL1201862, “PubChem BioAssay data set” (2004)
Activity calls are given as the source filed them.

Experiments:
BJ [1] = assay: cytotoxicity toward Ras-transformed BJeLR fibroblasts, dose response, cell-based, alamar blue fluorescence, cherrypicked samples (AID 2631); format: functional; settings: Homo sapiens;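 note: confirmatory dose-response assay in RAS-dependent BJ fibroblasts engineered with TERT, LT and ST, with cytotoxicity read by fluorescence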
[2] = molecular target: Heat shock protein HSP 90-alpha (Homo sapiens, UniProt P07900); format: functional, organism-based
Caspase-7 = molecular target: T1, Caspase-7 (Homo sapiens, UniProt P55210); assay: human caspase-7 inhibitors, dose response, selectivity assay for caspase-6 inhibitor project, biochemical, DEVD-R110 fluorescence, cherry-pick (AID 743295)
T1 sequence (P55210 whole entry): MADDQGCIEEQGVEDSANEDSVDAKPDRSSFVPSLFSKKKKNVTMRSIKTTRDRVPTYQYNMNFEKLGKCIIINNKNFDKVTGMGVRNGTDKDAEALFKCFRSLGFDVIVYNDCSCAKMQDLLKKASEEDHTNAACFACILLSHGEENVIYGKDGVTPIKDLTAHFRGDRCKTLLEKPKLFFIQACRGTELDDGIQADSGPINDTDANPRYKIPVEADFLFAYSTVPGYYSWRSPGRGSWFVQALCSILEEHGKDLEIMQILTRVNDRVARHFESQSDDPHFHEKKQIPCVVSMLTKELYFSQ

[3] = Luminescence Cell-Based Dose Confirmation HTS to Identify Inhibitors of Platelet Dense Granule Release. [Related pubchem assays: 1663 (Primary HTS), 1678 (Summary of Project)]; format: functional
Genome polyprotein = Genome polyprotein (dengue virus type 2, UniProt P29990); assay: Dengue-2 NS5 methyltransferase inhibitors, primary screen, biochemical, confirmation dose response (AID 588689); format: functional
INS1 = assay: beta cell apoptosis inhibitors, cytokine rescue, dose response, luminescence, retest (AID 449756); format: functional, cell-based; settings: Rattus norvegicus;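 note: cell death triggered by IL-1 beta plus TNF-alpha plus IFN-gamma mixture; protective hits raise ATP signal compared with cytokine alone wells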
BJ [4] = assay: cytotoxicity toward BJ-TERT fibroblasts, dose response, cell-based, RAS-independent, luminescence (AID 1933); format: functional; settings: Homo sapiens
[5] = cytotoxicity toward DRD oncogenic fibroblasts, dose response, cell-based, non-viral oncogenic, luminescence (AID 1934); format: functional; settings: Homo sapiens
BJ [6] = assay: cells; format: functional, cell-based; settings: Homo sapiens
[7] = HepG2 cell cytotoxicity, dose response, cytotoxicity control for non-replicating M. tuberculosis project (AID 489018); format: functional; settings: Mycobacterium tuberculosis
[8] = Shn3 3'UTR reporter inhibitors, dose response, cell-based, Clone20 osteoblasts, firefly luciferase, cherry-picked (AID 624132); format: functional;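 note: firefly luciferase luminescence from reporter carrying the Shn3 3'UTR in osteoblasts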
[9] = C. albicans growth with fluconazole, confirmation, fluorescence, retest (AID 2467); format: functional, cell-based
[10] = NIH-3T3 fibroblast cytotoxicity, dose response, cytotoxicity control, cell-based, fluorescence, Alamar Blue, secondary assay (AID 2327); format: functional;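 note: NIH-3T3 mouse fibroblasts cultured with fluconazole at 8 µg/mL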
HEK293 = assay: HEK cell cytotoxicity by LDH release, dose response, cytotoxicity control for IDE activator project, fluorescence, HEK cells (AID 588440); format: functional, cell-based; settings: Homo sapiens;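 note: cytotoxicity by LDH release measuring loss of membrane integrity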
[11] = HepG2 cell cytotoxicity, dose response, cytotoxicity control for Shn3 inhibitor project, CellTiter-Glo, cherry-picked (AID 624134); format: functional, cell-based
[12] = molecular target: Serine/threonine-protein phosphatase PP1-alpha catalytic subunit (Homo sapiens, UniProt P62136); assay: PP1 phosphatase inhibitors, dose response, biochemical, fluorescence (AID 2394)
[13] = molecular target: Dual specificity tyrosine-phosphorylation-regulated kinase 3 (Homo sapiens, UniProt O43781); format: functional;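 note: measured as one member of a broad kinase panel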
[14] = molecular target: Serine/threonine-protein kinase D3 (Homo sapiens, UniProt O94806); format: functional;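 note: determined within a kinase panel screen, with PRKCN as the panel member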
Sequence of Serine/threonine-protein kinase D3 (O94806 whole entry): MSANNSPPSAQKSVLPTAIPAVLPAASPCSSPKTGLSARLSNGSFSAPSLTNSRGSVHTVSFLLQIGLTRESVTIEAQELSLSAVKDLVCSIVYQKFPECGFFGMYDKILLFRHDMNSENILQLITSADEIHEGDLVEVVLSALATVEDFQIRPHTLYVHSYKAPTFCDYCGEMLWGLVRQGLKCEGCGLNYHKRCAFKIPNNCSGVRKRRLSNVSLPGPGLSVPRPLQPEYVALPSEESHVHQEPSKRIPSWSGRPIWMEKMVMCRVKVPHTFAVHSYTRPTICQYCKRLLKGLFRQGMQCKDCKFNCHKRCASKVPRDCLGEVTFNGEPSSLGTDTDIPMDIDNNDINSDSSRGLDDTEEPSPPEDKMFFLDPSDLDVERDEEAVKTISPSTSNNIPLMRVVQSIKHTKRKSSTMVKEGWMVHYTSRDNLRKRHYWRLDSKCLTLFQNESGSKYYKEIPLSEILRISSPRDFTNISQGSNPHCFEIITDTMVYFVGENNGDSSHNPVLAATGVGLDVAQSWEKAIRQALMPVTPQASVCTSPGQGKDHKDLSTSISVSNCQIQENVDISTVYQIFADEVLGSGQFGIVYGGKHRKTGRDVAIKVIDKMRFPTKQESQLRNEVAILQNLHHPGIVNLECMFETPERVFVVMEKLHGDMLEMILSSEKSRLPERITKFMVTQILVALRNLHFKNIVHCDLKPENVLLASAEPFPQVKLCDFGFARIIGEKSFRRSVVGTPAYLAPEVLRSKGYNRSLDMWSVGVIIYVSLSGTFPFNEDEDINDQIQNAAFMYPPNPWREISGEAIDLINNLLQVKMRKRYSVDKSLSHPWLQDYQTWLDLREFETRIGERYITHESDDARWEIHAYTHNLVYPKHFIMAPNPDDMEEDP

[15] = molecular target: Ribosomal protein S6 kinase alpha-3 (Homo sapiens, UniProt P51812); format: functional;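 note: measured within a kinome-wide profiling panel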
Sequence of Ribosomal protein S6 kinase alpha-3 (P51812 whole entry): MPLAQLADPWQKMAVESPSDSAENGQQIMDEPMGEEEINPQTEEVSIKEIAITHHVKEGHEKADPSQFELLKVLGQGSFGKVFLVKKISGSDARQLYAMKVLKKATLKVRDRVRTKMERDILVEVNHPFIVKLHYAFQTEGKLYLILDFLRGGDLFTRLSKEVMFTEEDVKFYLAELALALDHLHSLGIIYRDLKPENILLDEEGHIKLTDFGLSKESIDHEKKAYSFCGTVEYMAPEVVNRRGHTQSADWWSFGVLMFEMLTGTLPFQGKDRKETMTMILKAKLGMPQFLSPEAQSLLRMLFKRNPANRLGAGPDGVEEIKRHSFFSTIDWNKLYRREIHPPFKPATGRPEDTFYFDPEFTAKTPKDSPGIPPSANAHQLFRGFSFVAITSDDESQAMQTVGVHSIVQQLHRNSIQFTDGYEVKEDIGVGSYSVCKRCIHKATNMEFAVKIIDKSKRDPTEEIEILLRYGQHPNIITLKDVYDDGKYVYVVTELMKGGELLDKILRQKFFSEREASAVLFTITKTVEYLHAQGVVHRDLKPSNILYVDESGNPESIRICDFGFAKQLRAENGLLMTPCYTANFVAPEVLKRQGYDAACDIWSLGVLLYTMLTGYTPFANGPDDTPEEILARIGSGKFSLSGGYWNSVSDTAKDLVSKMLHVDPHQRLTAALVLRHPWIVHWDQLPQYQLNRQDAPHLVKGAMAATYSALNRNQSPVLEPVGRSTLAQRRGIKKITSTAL

[16] = molecular target: cGMP-dependent protein kinase 1 (Homo sapiens, UniProt Q13976); format: functional;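 note: value from a kinome panel screen with PRKG1 as the panel member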
[17] = molecular target: Protein-tyrosine kinase 6 (Homo sapiens, UniProt Q13882); format: functional
[18] = molecular target: Dual specificity protein kinase CLK2 (Homo sapiens, UniProt P49760); format: functional
[19] = molecular target: Receptor tyrosine-protein kinase erbB-4 (Homo sapiens, UniProt Q15303); format: functional;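 note: ERBB4 member of a kinome-wide kinase profiling panel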
[20] = molecular target: MAP/microtubule affinity-regulating kinase 3 (Homo sapiens, UniProt P27448); format: functional;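 note: MARK3 affinity measured as one member of a kinome panel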
[21] = molecular target: Serine/threonine-protein kinase PLK1 (Homo sapiens, UniProt P53350); format: functional;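 note: PLK1 measured as one member of a kinome-wide profiling panel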
Sequence of Serine/threonine-protein kinase PLK1 (P53350 whole entry): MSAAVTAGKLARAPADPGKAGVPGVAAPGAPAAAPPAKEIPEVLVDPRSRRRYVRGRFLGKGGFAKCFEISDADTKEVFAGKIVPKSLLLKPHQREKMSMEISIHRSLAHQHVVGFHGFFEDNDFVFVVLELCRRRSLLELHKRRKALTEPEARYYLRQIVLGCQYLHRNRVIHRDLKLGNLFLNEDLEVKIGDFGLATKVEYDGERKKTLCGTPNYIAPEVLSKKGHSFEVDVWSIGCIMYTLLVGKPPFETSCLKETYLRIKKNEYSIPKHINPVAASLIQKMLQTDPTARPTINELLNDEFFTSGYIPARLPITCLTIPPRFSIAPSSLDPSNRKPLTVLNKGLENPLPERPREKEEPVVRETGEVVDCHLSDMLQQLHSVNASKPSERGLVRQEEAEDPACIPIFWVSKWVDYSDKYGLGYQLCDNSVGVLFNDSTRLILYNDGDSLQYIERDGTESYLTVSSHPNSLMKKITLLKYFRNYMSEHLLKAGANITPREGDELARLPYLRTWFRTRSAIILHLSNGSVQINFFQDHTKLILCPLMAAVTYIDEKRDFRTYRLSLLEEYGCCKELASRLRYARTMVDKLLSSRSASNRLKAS

[22] = molecular target: BDNF/NT-3 growth factors receptor (Homo sapiens, UniProt Q16620); format: functional;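 note: NTRK2 measured as one member of a broad kinome-wide kinase profiling panel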
LIM domain kinase 1 = LIM domain kinase 1 (Homo sapiens, UniProt P53667); assay: Navigating the Kinome. Panel member name: LIMK1; format: functional
Insulin receptor = Insulin receptor (Homo sapiens, UniProt P06213); format: functional;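 note: insulin receptor kinase tested as one member of a kinome-wide kinase panel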
[23] = molecular target: Homeodomain-interacting protein kinase 2 (Homo sapiens, UniProt Q9H2X6); format: functional;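 note: measured within a kinome-wide kinase profiling panel, HIPK2 being one panel member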
[24] = molecular target: Protein kinase C gamma type (Homo sapiens, UniProt P05129); format: functional
SRSF protein kinase 1 = SRSF protein kinase 1 (Homo sapiens, UniProt Q96SB4); format: functional;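 note: measured as one member of a kinome-wide kinase profiling panel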
[25] = molecular target: Interleukin-1 receptor-associated kinase 1 (Homo sapiens, UniProt P51617); format: functional;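 note: IRAK1 tested as one member of a kinome panel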
Misshapen-like kinase 1 = Misshapen-like kinase 1 (Homo sapiens, UniProt Q8N4C8); format: functional;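 note: kinome panel screen with MINK as the panel member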
Sequence of Misshapen-like kinase 1 (Q8N4C8 whole entry): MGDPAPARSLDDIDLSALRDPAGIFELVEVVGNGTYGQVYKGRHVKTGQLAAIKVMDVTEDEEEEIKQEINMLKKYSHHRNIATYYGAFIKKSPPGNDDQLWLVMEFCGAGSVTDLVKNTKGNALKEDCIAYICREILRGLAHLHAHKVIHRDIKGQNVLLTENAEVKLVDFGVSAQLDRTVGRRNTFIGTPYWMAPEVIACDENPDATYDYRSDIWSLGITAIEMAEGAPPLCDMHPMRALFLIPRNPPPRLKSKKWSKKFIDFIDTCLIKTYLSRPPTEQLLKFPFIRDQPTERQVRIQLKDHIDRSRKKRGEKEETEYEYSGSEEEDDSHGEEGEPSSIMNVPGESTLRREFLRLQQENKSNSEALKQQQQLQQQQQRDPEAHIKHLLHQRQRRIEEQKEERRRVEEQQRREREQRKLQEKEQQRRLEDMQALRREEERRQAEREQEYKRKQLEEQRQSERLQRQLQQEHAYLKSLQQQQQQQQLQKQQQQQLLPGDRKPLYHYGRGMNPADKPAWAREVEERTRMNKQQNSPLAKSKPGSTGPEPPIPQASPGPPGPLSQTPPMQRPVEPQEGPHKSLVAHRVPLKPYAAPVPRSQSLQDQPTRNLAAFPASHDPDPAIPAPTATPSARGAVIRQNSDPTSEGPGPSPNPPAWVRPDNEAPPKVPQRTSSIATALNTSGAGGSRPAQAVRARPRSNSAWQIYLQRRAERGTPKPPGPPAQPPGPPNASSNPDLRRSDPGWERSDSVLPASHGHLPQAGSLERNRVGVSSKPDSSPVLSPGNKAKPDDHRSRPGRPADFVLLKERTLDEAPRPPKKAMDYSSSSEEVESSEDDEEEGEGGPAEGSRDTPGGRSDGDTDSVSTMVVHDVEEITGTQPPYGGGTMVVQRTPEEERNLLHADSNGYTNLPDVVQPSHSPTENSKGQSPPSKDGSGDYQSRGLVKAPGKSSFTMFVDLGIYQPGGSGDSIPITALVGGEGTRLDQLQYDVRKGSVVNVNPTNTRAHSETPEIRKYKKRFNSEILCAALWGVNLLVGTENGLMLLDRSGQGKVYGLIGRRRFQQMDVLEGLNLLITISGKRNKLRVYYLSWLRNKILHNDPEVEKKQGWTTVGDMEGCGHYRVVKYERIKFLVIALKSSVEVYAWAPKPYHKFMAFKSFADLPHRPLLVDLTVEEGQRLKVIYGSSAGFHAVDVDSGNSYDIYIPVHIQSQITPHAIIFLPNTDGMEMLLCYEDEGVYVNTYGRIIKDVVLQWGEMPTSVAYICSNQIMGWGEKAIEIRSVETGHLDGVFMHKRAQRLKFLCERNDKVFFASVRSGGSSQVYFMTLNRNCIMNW

[26] = molecular target: Fibroblast growth factor receptor 3 (Homo sapiens, UniProt P22607); format: functional
[27] = molecular target: RAC-gamma serine/threonine-protein kinase (Homo sapiens, UniProt Q9Y243); format: functional
[28] = molecular target: Mitogen-activated protein kinase kinase kinase 20 (Homo sapiens, UniProt Q9NYL2); format: functional
[29] = molecular target: Testis-specific serine/threonine-protein kinase 2 (Homo sapiens, UniProt Q96PF2); format: functional;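 note: part of the Navigating the Kinome panel, target entry STK22B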
Sequence of Testis-specific serine/threonine-protein kinase 2 (Q96PF2 whole entry): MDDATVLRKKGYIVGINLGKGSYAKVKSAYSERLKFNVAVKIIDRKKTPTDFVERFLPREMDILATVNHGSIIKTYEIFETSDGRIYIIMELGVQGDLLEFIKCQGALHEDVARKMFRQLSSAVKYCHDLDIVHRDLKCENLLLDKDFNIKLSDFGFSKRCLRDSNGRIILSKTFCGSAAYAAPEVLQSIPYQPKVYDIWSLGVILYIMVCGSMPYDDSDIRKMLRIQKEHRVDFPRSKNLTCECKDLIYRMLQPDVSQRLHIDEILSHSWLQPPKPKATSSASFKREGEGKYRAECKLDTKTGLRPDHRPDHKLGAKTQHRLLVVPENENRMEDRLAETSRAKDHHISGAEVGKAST

Focal adhesion kinase 1 = Focal adhesion kinase 1 (Homo sapiens, UniProt Q05397); format: functional;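 note: measured as one member of a kinome panel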
Sequence of Focal adhesion kinase 1 (Q05397 whole entry): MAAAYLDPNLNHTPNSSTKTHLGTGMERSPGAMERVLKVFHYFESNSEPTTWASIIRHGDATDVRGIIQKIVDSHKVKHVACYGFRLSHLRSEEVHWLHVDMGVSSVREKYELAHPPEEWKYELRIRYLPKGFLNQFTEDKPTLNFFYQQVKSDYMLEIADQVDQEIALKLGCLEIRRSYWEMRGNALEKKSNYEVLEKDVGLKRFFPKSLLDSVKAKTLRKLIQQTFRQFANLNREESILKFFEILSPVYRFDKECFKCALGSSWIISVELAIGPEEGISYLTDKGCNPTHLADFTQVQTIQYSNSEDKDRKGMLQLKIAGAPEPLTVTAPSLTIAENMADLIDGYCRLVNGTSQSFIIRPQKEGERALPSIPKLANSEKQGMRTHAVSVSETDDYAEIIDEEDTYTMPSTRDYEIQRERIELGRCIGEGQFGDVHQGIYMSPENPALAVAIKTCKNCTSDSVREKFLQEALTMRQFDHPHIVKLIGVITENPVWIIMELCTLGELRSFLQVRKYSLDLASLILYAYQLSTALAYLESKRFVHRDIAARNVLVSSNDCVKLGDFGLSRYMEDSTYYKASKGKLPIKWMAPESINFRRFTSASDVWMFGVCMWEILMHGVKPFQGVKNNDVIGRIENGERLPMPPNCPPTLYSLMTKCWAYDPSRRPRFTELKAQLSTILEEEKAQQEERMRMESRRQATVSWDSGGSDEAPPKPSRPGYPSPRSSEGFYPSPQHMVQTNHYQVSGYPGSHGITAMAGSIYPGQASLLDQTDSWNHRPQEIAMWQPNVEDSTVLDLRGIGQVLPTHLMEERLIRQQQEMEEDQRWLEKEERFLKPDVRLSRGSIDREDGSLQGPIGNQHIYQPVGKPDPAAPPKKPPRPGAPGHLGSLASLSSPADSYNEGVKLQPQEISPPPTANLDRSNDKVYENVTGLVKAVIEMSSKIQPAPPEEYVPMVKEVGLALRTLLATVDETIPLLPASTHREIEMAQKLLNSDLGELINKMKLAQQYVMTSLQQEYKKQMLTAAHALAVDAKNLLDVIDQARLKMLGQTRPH

[30] = molecular target: Tyrosine-protein kinase receptor UFO (Homo sapiens, UniProt P30530); format: functional

O=[N+]([O-])c1c(Nc2ccccn2)cc(Cl)c2nonc12
EC50 (BJ [1]): 2.43 µM (active)
AC50 [2]: 1.93 µM (active)
AC50 (Caspase-7): 20.3 µM (active)
EC50 [3]: 3.55 µM (active)
IC50 (Genome polyprotein): 20 µM (active)
AC50 (INS1): 6.13 µM (active)
EC50 (BJ [4]): 5.14 µM (inconclusive)
EC50 [5]: 5.44 µM (inconclusive)
EC50 (BJ [6]): 5.38 µM (active)
CC50 [7]: 16.7 µM (active)

CC[C@@H](C)[C@H](CNC)NC[C@@H](Cc1cccc2ccccc12)NCCc1cccc(C(F)(F)F)c1
AC50 [8]: 8.08 µM (active)
EC50 [9]: > 38 µM (not active)
EC50 [10]: > 150 µM (inconclusive)
IC50 (HEK293): 8.67 µM (active)
AC50 [11]: 9.13 µM (active)

Cc1ccc(C(=O)NC2(O)C(=O)c3ccccc3C2=O)cc1C
IC50 [12]: > 67 µM (not active)

CC(C)(CO)CNc1nccc(-c2c(-c3ccc(F)cc3)nc3c(CC4CC4)nccn23)n1
Ki [13]: > 6.31 µM (inactive)
Ki [14]: 5.01 µM (active)
Ki [15]: > 7.94 µM (inactive)
Ki [16]: > 2 µM (inactive)
Ki [17]: > 2.51 µM (inactive)
Ki [18]: > 7.94 µM (inactive)
Ki [19]: > 3.98 µM (inactive)
Ki [20]: > 6.31 µM (inactive)
Ki [21]: > 7.94 µM (inactive)
Ki [22]: > 5.01 µM (inactive)
Ki (LIM domain kinase 1): 0.126 µM (active)
Ki (Insulin receptor): > 5.01 µM (inactive)
Ki [23]: > 3.16 µM (inactive)
Ki [24]: > 7.94 µM (inactive)
Ki (SRSF protein kinase 1): > 7.94 µM (inactive)
Ki [25]: > 7.94 µM (inactive)
Ki (Misshapen-like kinase 1): 3.16 µM (active)
Ki [26]: > 2 µM (inactive)
Ki [27]: > 10 µM (inactive)
Ki [28]: > 7.94 µM (inactive)
Ki [29]: > 1.58 µM (inactive)
Ki (Focal adhesion kinase 1): > 1.58 µM (inactive)
Ki [30]: > 2 µM (inactive)
